According to patent US7638343B2, “Method to identify or evaluate compounds useful in the field of fragrances and aromas” (priority 2004, dated 2009):

Assays:
olfactory perception = conditions: cited from earlier work; for olfactory threshold / odour intensity: raspberry aroma, Winter (1961) Helv. Chim. Acta 44:2110
human respiratory tract [1] = test: Metabospace: real-time APCI-MS analysis of exhaled breath after inhalation of saturated headspace of test compound; type: in vivo; conditions: for decrease of mass chromatogram signal intensity as a function of inhalation/exhalation cycles (release in exhaled breath): after nasal inhalation of the substrate, about 30 inhalation/exhalation cycles
Description: The “Metabospace” technology allows real-time detection and analysis of in vivo generated metabolites (exhaled volatiles) starting from compounds of interest. First, a test subject inhales the saturated headspace of a volatile compound. The saturated headspace may be provided as described in the examples herein-below. The breath is exhaled directly into a glass funnel, which works as interface to an analysis device where mass spectra are recorded by a quadrupole mass spectrometer equipped with an atmospheric pressure chemical ionization (APCI) ion source with a modified interface which allows the measurement of fast dynamic changes of volatiles as described in Grab, W., and Gfeller, H. In: ACS Symposium Series 763—Flavor Release (Roberts, D. D., and Taylor, A. J., Eds.) American Chemical Society, Washington, D.C. (2002). The procedure may be performed for example as described further in the examples herein below.
Mass spectrum scans detect the entire range of pseudomolecular ions as well as ions of fragments of molecules. If candidate metabolites are already known, e.g. from in vitro data, the mass chromatogram corresponding to the pseudomolecular ion can be directly visualized together with the chromatogram for the substrate. Acetone is always present in human breath and can be used to show the respiration pattern. Mass spectrum scans of volatiles either exhaled from the nasal or the oral cavity are recorded in narrow time spans, for example twice per second, to follow changes in breath composition as a function of time and respiration cycles. Usually, a series of scans are done to detect other ions that may be linked to the substrate and/or metabolites, which can e.g. be derived from fragments of the substrate and/or the metabolites, as is well-known to the person skilled in the art. Various mass spectrum scans are performed as is well known in the art. In the present invention, a large number of mass spectrum scans are be recorded by the mass spectrometer (for example 2 scans per second). The total ion chromatogram (TIC) gives the total of signals. Individual signals, e.g. the pseudomolecular ion [M+H]^+ for acetone at m/z 59, may be singled out and analysed over time in so-called “mass chromatograms”. Metabolites appear as additional signals in scans, and specific signals are followed over time in respective mass chromatograms. During the first inhalation/exhalation cycles, scans are analysed for ions which are present in exhalations following the inhalation of surrounding air (blank, background) and are not derived from the test compound or from metabolites. It is well known in the art how to identify unknown signals. Depending on the chemistry of the test compound and the possible metabolic reactions which can take place, particular ions are expected to occur if such metabolism takes place. To narrow down the possibilities, a hypothesis based on the test compound (enzyme substrate) and potential biotransformation reactions resulting in metabolites is used. For example, metabolites that result from reactions of the test compound with oxidizing enzymes belonging to the group of CYP enzymes may undergo metabolism including hydroxylation or epoxidation reactions, and specific signals for such metabolites may be generally found at the m/z number of the substrate plus 16. […]

[2] = target: T1, nasal metabolic enzyme CYP2A13 (Homo sapiens, UniProt Q16696); test: Metabospace with volatile suppressor inhaled immediately prior to test compound; type: in vivo; conditions: suppressor (inhibitor of CYP2A13) inhaled immediately prior to test compound; compared with runs without suppressor
T1 construct: from tissue; host or cells: nasal cavity / respiratory tract of a living test subject
T1 sequence (Q16696 1-494): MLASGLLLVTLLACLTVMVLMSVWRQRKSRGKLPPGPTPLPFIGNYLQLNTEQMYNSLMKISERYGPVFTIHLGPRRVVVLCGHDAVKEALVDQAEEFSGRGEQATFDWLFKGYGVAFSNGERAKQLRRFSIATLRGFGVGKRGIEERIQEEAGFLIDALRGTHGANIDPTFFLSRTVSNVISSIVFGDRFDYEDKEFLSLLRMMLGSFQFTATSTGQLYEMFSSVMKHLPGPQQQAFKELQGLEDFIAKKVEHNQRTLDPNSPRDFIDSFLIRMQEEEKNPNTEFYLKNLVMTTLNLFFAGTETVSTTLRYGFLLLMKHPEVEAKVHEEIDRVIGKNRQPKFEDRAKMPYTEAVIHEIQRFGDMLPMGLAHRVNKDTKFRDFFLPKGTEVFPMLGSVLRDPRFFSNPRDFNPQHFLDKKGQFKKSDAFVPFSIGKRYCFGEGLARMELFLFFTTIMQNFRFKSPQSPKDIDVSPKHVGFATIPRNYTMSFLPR
Description: A volatile suppressor compound (inhibitor of nasal metabolic enzyme CYP2A13) is inhaled immediately prior to the inhalation of the test compound 2-methoxyacetophenone.
The test subject performs three runs in a row: (1) test compound only; (2) suppressor followed by test compound; (3) test compound only. Before and between runs, blank controls are recorded (inhalation of room air and recording of 30 inhalation/exhalation cycles).
The procedure is performed as described in example 6A, however, as a test compound ketanone is used and ketanone and its metabolite 4-(4-hydroxyphenyl)butan-2-one (raspberry ketone) are detected as described in example 5.

human respiratory tract [3] = test: Metabo-GM: exhaled breath trapped on Tenax TA resin, thermodesorption, GC-MS; type: in vivo
carboxyl esterase = test: Metabo-GM with inhibitor of carboxyl esterase as suppressor inhaled before test compound; type: in vivo, human; conditions: for proportion of detected metabolite with suppressor compared to analysis without suppressor: carboxyl esterase inhibitor inhaled first, then test compound; for metabolite detected in exhaled breath by GC-MS: without suppressor
Description: The procedure is performed as described in examples 7 and 10 subject to the following modifications:
As suppressor, an inhibitor for carboxyl esterase is used. As test compound, phenethylacetate is used, which is a substrate for carboxyl esterase.
The procedure is performed as described in example 12A with an inhibitor for carboxyl esterase as suppressor, subject to the following modifications:
As test compound, styrallylacetate is used, which is a substrate for carboxyl esterase.

carboxyl esterases = test: Cascade Olfactometer: perceived odour intensity and olfactory threshold of odorant with modulator (inhibitor of carboxyl esterases); type: in vivo, human
Description: A modulator is identified using an Olfactometer. As reference test compounds, odorant esters are used. A second test compound (potential modulator, modulator test compound) is tested in combination with these odorant test compounds. The odorant reference test compound is kept at a constant concentration with the modulator concentration being varied.
If metabolism is taking place, the amount of styrallylacetate which is stimulating the olfactory system is decreased.
A standard concentration (appropriate dilution of saturated headspace) of the odorant test compound is provided in one Olfactometer (cascade 1) as the reference, while in the second olfactometer (cascade 2) the odorant test compound is provided at the standard concentration supplemented with various concentrations of the modulator (appropriate dilutions of saturated headspace).
First, the threshold for the odorant styrallylacetate is determined for each test subject. The standard concentration is chosen so that it is perceived to be of week to moderate intensity as judged by each test subject.
The concentrations of the modulator test compound are chosen to be below the olfactory threshold of the test subject.
A sample is provided as headspace in a saturation chamber. The flow from said chamber is added to a carrier gas supply and mixed in a chamber which is connected with the sniffing port where a test subject detects the stimulus. Said flow (the headspace of the sample before addition to the carrier) is determined and adjusted so that the test subject rates said flow as medium intensity. This is the reference that is used in cascade 1. For styrallylacetate, a flow of 20 ml/min of the odorant is used. […]
The effect of the modulator on the olfactory threshold of styrallylacetate is determined in as follows. […]
Alternatively, a dose response curve is recorded using one olfactometer (Cascade 2) by providing samples above and below the detected olfactory threshold of the test subjects. This is compared to the known threshold of the compound which is recorded beforehand. […]

[4] = inhalation and exhalation both through the mouth

proportion of detected metabolite with suppressor compared to analysis without suppressor (carboxyl esterase) | metabolite detected in exhaled breath by GC-MS (carboxyl esterase) | SMILES | olfactory threshold / odour intensity (olfactory perception) | decrease of mass chromatogram signal intensity as a function of inhalation/exhalation cycles (release in exhaled breath) (human respiratory tract [1]) | metabolite signal in exhaled breath in presence of suppressor [2] | amount of metabolite detected in exhaled breath by GC-MS (human respiratory tract [3]; [4]) | other results
 |  | CC(=O)CCc1ccc(O)cc1 [4-(4-hydroxyphenyl)butan-2-one] | very low olfactory threshold |  |  |  | 
 |  | COc1ccc(CCC(C)=O)cc1 [ketanone] | significantly less intense | retarded release of the more hydrophilic metabolite is observed | significantly decreased signal intensity for the metabolite |  | metabolite detected in exhaled breath (mass chromatogram signal) (human respiratory tract [1]; inhalation and exhalation through the nose, human test subject): a compound is detected at m/z 165 which corresponds to 4(4-hydroxyphenyl)butan-2-one (raspberry ketone)
 |  | O=C(CO)c1ccccc1 [2-hydroxyacetophenone] |  | still near maximal intensity after 30 inhalation/exhalation recordings |  |  | 
significantly lower | styrallylalcohol is detected | CC(=O)OC(C)c1ccccc1 (stereo not drawn) [styrallylacetate] |  |  |  | Less styrallylalcohol (metabolite) is detected | metabolite detected in exhaled breath by GC-MS (human respiratory tract [3]; inhalation and exhalation through the nose): Significant amounts of styrallylalcohol and acetic acid (metabolites) are detected; olfactory threshold combined with modulator versus odorant alone (carboxyl esterases; dose response curve, one olfactometer, modulator constant): lower than the determined olfactory threshold for styrallylacetate alone; perceived intensity of the odorant in presence of the potential modulator (carboxyl esterases; odorant flow 20 ml/min constant, modulator flow varied 1 to 900 ml/min, below its olfactory threshold, versus reference without modulator): intensity of the odorant is increased; odour intensity in presence of modulator versus reference (JND protocol) (carboxyl esterases; styrallylacetate 20 ml/min in both cascades, modulator 5 ml/min in cascade 2): stronger than the reference concentration; olfactory threshold relative to its metabolite (olfactory perception; compared with styrallylalcohol): lower threshold than its metabolite styrallylalcohol
about 50% | phenethylalcohol is detected | CC(=O)OCCc1ccccc1 [phenethylacetate] |  |  |  |  | 
 |  | COCC(=O)c1ccccc1 [2-methoxyacetophenone] |  | decreases relatively quickly, within about 30 inhalation/exhalation cycles | considerably less metabolite is formed in presence of the suppressor | only in a small amount barely detectable | metabolite signal in exhaled breath (human respiratory tract [1]; first variant: inhalation and exhalation both through the mouth): no signal corresponding to the metabolite is detected; amount of metabolite detected in exhaled breath by GC-MS (human respiratory tract [3]; inhalation through the mouth, exhalation through the nose): significantly more metabolite is detected
